Laboratory results published in publication PMC6458850, “CXXC5 mediates growth plate senescence and is a target for enhancement of longitudinal bone growth” (Life Science Alliance, 2019).

Tested on: ATDC5 cells
Test: Chondrocyte proliferation, differentiation and Wnt/β-catenin signaling in ATDC5 cells
Assay type: cell-based, mouse
Method: Figure S7. The effects of KY19382 on chondrocyte proliferation and differentiation. (A) ATDC5 cells treated with 0.01 or 0.1 μM concentrations of KY19382 were incubated for 48 h followed by treatment with 50 μM BrdU for 12 h before harvesting. BrdU incorporation was visualized by immunofluorescent staining using a specific BrdU antibody (left). BrdU-positive cells were quantified (mean ± SEM, n = 3; ANOVA, P = 7.8 × 10^−5; Tukey’s post-hoc test, *P < 0.05 and ***P < 0.0005) (right). Scale bar, 100 μm. (B) qRT-PCR analyses of mRNA levels of chondrogenic differentiation markers in ATDC5 cells incubated with 0.1 μM KY19382 for 3 d in three-dimensional alginate beads after transfection with control siRNA or Ctnnb1 siRNA (mean ± SEM, n = 3; t test, *P < 0.05, **P < 0.005, and ***P < 0.0005). (C) qRT-PCR analyses of mRNA levels of chondrogenic differentiation markers in C28/I2 cells incubated with 1 μM KY19382 for 3 d in three-dimensional alginate beads (mean ± SEM, n = 3; t test, *P < 0.05 and ***P < 0.0005). n.s., no significance.
Figure S8. qRT-PCR analyses for target-specificity of KY19382. qRT-PCR analyses of mRNA levels of pathway-specific target genes in ATDC5 cells treated with 0.01 or 0.1 μM concentrations of KY19382 for 4 h (mean ± SEM, n = 3; ANOVA and Tukey’s post-hoc test, *P < 0.05 and **P < 0.005 versus DMSO-treated control). n.s., no significance versus DMSO-treated control.
The mouse chondrogenic cell line, ATDC5, was obtained from the RIKEN Cell Bank. The human juvenile costal chondrocyte cell line, C28/I2, was provided by Dr. W U Kim (Catholic University, Korea). HEK293-TOP cells (HEK293 cells containing the chromosomally incorporated TOPFlash gene) were provided by Dr. S Oh (Kuk Min University, Korea). ATDC5 cells were maintained in DMEM/F12 (1:1) (Gibco) supplemented with 5% FBS (Gibco). To induce hypertrophic differentiation, ATDC5 cells were incubated with insulin–transferrin–sodium selenite supplement (Gibco) in three-dimensional alginate beads for 3 d, as described previously ([Kawasaki et al, 2008]). C28/I2 and HEK293-TOP cells were maintained in DMEM (Gibco) containing 10% FBS. All chemicals were dissolved in dimethyl sulfoxide (DMSO; Sigma-Aldrich) for the in vitro studies. For E2 (17β-estradiol; Sigma-Aldrich) treatment, the cells were cultured in phenol red–free DMEM/F12 with 5% charcoal-stripped FBS for 24 h followed by serum-free medium for 24 h before the experiment. The PTD-DBMP was synthesized by Peptide 2.0 Inc.
ATDC5 or C28/I2 cells were seeded on glass coverslip in 12-well culture plates. The cells were washed with PBS and fixed with 4% PFA at room temperature for 15 min. After permeabilization with 0.1% Triton X-100 for 15 min and blocking with 5% BSA for 1 h, the cells were incubated with primary antibodies specific for β-catenin (1:100) or CXXC5 (1:200) at 4°C overnight. The cells were washed in PBS and incubated with Alexa Fluor 488 or Alexa Fluor 555 secondary antibodies (1:200) at room temperature for 1 h. Cell nuclei were counterstained with DAPI for 10 min and the stained samples were examined under an LSM700 META microscope using 405-, 488-, or 543-nm excitation wavelengths. For BrdU assay, the cultured cells were incubated with BrdU solution (25 μM) overnight, followed by immunocytochemical staining with antibody against BrdU (1:100).
Immunoprecipitation was performed as previously described ([Kim et al, 2015]). To monitor the protein–protein interactions, 1 mg of WCLs were incubated with anti-DVL1 and protein G agarose beads (GenDEPOT) or anti-Myc and protein A agarose beads (GenDEPOT) at 4°C for 16 h, and the beads were then washed three times in RIPA buffer. The resulting immune complexes were resolved by SDS–PAGE, and immunoblotting was performed with the indicated antibodies.
Total RNA was extracted using Trizol reagent (Invitrogen) according to the manufacturer’s instructions. […]

[1] = ATDC5 cells, 0.01 or 0.1 μM, 4 h

## CON=C1C(=C2C(=O)Nc3cc(Cl)c(Cl)cc32)Nc2ccccc21 [KY19382, 5,6-dichloroindirubin-3′-methoxime]
0.01 or 0.1 μM, 48 h
  BrdU-positive ATDC5 cells: enhanced number
ATDC5 cells transfected with FLAG-DVL1 and CXXC5-Myc, 0.1 μM, 4 h
  CXXC5–DVL interaction (immunoprecipitation): interruption
ATDC5 cells, 0.1 μM, 48 h
  nuclear translocation of β-catenin: elevated nuclear translocation
ATDC5 cells, 0.1 μM, 3 d, alginate beads
  mRNA levels of chondrogenic markers: up-regulated
[1]
  expression levels of Wnt/β-catenin target genes (Wisp1, Axin2): markedly increased
  expression of 19 other genes that respond to other pathways (off-target effects): not significantly altered
Fig 4E and Fig S8
  concentration sufficient to promote activation of Wnt/β-catenin pathway in vitro: 0.01 µM
